# Measurements as given in PMC5526551, “New hydrazonoindolin-2-ones: Synthesis, exploration of the possible anti-proliferative mechanism of action and encapsulation into PLGA microspheres” (PLoS ONE, 2017).
# Like-named read-outs stand apart in the source and are kept apart here.
# Assays:
# [1] = system: phosphorylated Rb protein in A549 cells; test: Rb phosphorylation (immunofluorescent imaging); format: cell-based; conditions: Homo sapiens, read-out: IC50 for reduction in Rb phosphorylation
# Procedure: Compound 7e was analyzed for effects on various aspects of cell cycle progression in human cancer cells. These studies were carried out using cells derived from lung adenocarcinoma (A549). This follow-up assessment of activity tested compounds used immunofluorescent imaging of phosphorylated Rb protein and the total DNA content of each cell to determine the cell cycle phase. The ability of the test compounds to affect the cell cycle and Rb phosphorylation was tested over a range of concentrations from less than 100 nM to 50 μM.
# Fig 5 Dose-dependent changes in cell cycle. Distribution of cells within the cell cycle as well as total cell numbers were quantitated by fluorescent staining of nuclear DNA with DAPI. Phosphorylated Rb protein was detected by indirect immunofluorescence followed by automated image acquisition and analysis. […] All IC50 values are given under one unlabelled substance, with the y-axis title of each plot written in front as the measure.
# A549 cells were harvested from a 90% confluent 10 cm dish and diluted in growth medium. An appropriate concentration of cells were prepared to add 5,000 cells in a volume of 100 µL per well in tissue culture treated PerkinElmer optical bottom ViewPlate microplates, then incubated overnight at 37°C. The following day, compound 7e and the positive control, sunitinib, were diluted in DMSO to concentrations 1000-fold above the maximum tested concentration.
# Concentrated dosing solutions of twice the final concentration were prepared by dilution of the DMSO stocks 1:500 in growth media. Three-fold dilutions of each dosing medium were then prepared in medium containing 0.2% DMSO to maintain a constant concentration of vehicle throughout the concentration range of each compound. Each of these was added in equal volume (100 µL) to each well on the assay plate, along with the vehicle control. One plate of cells was incubated with the compounds for a further 24 h, and a separate plate was incubated with the compounds for 48 h.
# At the end of the respective treatment periods, 150 µL per well of neutral buffered formalin fixative (10% paraformaldehyde) was rapidly added to each plate and incubated at room temperature for 20 min. […] Phosphorylated Rb protein (p-Rb) was detected by 1 h incubation with anti-p-Rb rabbit monoclonal antibody (Cell Signaling #8516) diluted 1:1600 in antibody dilution buffer (1% bovine serum albumin and 0.3% Triton X-100 in PBS). […] Anti-Phospho Ser807/811-Rb antibody (Cell Signalling cat #8516) was detected by 1 h incubation with goat anti-rabbit AlexaFluor 488 conjugate (InVitrogen cat #A-11008) diluted 1:500 in antibody dilution buffer. […] Fluorescent micrographs were analyzed using Molecular Devices MetaXpress multi-wavelength scoring image analysis program to quantitate Rb phosphorylation. […]
# [2] = system: Caspase 3/7 activity in A549 cells; test: Apoptosis and caspase 3/7 activity (CaspaseGlo 3/7 luminescence); format: cell-based, human; conditions: for Increase in caspase 3/7 activity: A549, 10 μM
# Procedure: Compound 7e was analyzed for apoptosis inducing activity in cancer cells. These studies were carried out using cells derived from human lung (A549).
# Fig 4 A-549 human lung cancer cells were treated with 3.3 and 10 μM 7e over a time course from 2–48 h. Caspase 3/7 activity was measured by a luminescence-based homogenous assay.
# A549 cells were harvested from a 90% confluent 10 cm dish and diluted in growth medium. An appropriate concentration of cells were prepared to add 1,250 cells in a volume of 25 µL per well in tissue culture treated Corning 384-well microplates, then incubated overnight at 37°C. A single cluster of four wells containing no cells was included to serve as a background (no cell) control. Compound 7e was diluted in DMSO to concentrations […].
# Concentrated dosing solutions of twice the final concentration were prepared by dilution of the DMSO stocks 1:500 in growth media. Three-fold dilutions of each dosing medium was then prepared in medium containing 0.2% DMSO to maintain a constant concentration of vehicle throughout the concentration range of the compound. Each of these was added in equal volume (25 µL) to four wells on each cell assay plate, along with the vehicle control. Cells were incubated with the compounds for a further 48 h. After 24 h, a separate group of cells was treated identically for 24 h. Likewise, groups of cells were treated for durations of 16, 8, 4 and 2 h.
# At the end of the treatment period, assay plates were allowed to cool to RT for 10 min prior to addition of 25 µL per well Promega CaspaseGlo 3/7 reagent, followed by an additional 10 min incubation at RT. The resulting luminescence was quantitated using a Molecular Devices Spectramax Paradigm.
# The average mean value of the background “no cell” control sample wells were subtracted from all vehicle and test compound wells.Fold-change in caspase activity was then calculated by dividing the mean sample value for each treatment time point by the mean vehicle value for the corresponding time.
# NCI-H69AR = test: Growth inhibition in multidrug resistant lung cancer cell line; format: cell-based; conditions: 72 h, maximum 25 μM
# Procedure: Compound 7e was analyzed for cancer cell growth inhibitory activity in a sensitive NSCLC cell line (A549) and a multidrug resistant lung cancer cell line (NCI-H69AR) which expresses the ABCC1 efflux pump protein. This assessment of activity tested compounds in quadruplicate at a maximum concentration of 25 μM, followed by 10 serially diluted concentrations.
# A549 and H69AR cells were harvested from 90-95% confluent 10 cm dishes, and diluted in growth media. An appropriate concentration of cells was prepared to add 1,250 cells in a volume of 25 µL per well in tissue culture treated BD 384-well microplates, then incubated overnight at 37 °C.
# Compound 7e was diluted to a concentration of 25 µM in DMSO. Concentrated dosing solutions (double the final concentration) were prepared by dilution of the DMSO stocks 1:500 in growth medium. Two-fold serial dilutions were then prepared in medium containing 0.2% DMSO to maintain a constant concentration of vehicle throughout the concentration range of the compound. Each of these was added in equal volume (25 µL), to four wells on each cell assay plate, along with the vehicle control. The highest concentration for serial dilution of the positive control compound sunitinib was prepared exactly as the experimental compound 7e. Cells were incubated at 37°C with the compounds for a further 72 h. At the end of the treatment period, assay plates were allowed to cool to RT for 10 min prior to addition of 25 µL per well Promega CellTiterGlo reagent, followed by an additional 10 min incubation at RT. The resulting luminescence was quantitated using a Molecular Devices Spectramax Paradigm.
# Percent growth inhibition was calculated using equation (1). The potency of compounds was determined using the non-linear dose response algorithm (four-parameter logistic fit) with GraphPad Prism 5 software.
SMILES,"IC50 ([1]; A549, 24 h) [µM]","IC50 ([1]; A549, 48 h) [µM]",Increase in caspase 3/7 activity ([2]; 4 h) [fold],Increase in caspase 3/7 activity ([2]; 8 h) [fold],"Effect on caspase 3/7 activity ([2]; A549, lower tested concentration (3.3 μM))",IC50 (NCI-H69AR) [µM],IC50 (NCI-H69AR; NCI-H69AR) [µM]
"O=C1Nc2ccc(Br)cc2C1=NN=C1C(=O)N(Cc2ccccc2)c2ccccc21 [Compound 7e, 1-Benzyl-3-((5-bromo-2-oxoindolin-3-ylidene)hydrazono)indolin-2-one]",2.55,2.47,2.4,1.85,no effect,12.7,12.7
"CCN(CC)CCNC(=O)c1c(C)[nH]c(/C=C2\C(=O)Nc3ccc(F)cc32)c1C [Sunitinib, sunitinib, reference compound]",3.16,14,–,–,–,5.8,5.83
